Measurements taken from US20020077329A1, “EP4 receptor inhibitors to treat rheumatoid arthritis” (priority 2000, published 2002).
Marks after values point to notes of the source that are not given here.

Columns and labels:
[1] = system: rats with adjuvant-induced arthritis; experiment: Arthritic score in adjuvant arthritis (sum of the score for all four limbs); type: in vivo, male, Sprague-Dawley rats; details: day 14; perorally day 0 to day 14; compound A and B 60 mg/kg bid, piroxicam 3 mg/kg qd, rofecoxib 1.5 mg/kg bid; n=8
Protocol: (§1) Arthritis was induced in male, Sprague-Dawley rats (115-145 g, Japan SLC Inc., Shizuoka, Japan) on Day 0 by an injection of 300 μg of M. Tuberculosis H37 RA (Difco Laboratories Inc., Detroit, Mich.) in 100 μl of liquid paraffin (Wako Pure Chemical Industries, Ltd., Osaka, Japan) into the right hind footpad (Neuroscience 78: 843-850, 1997) on Day 0.
(§2) EP4 antagonists included within Formula I as described above (compound A and B, 60 mg/kg, bid), piroxicam (Feldene®, 3 mg/kg, qd), rofecoxib (Vioxx®, 1.5 mg/kg, bid), and control vehicle were each suspended in 0.1% methylcellulose (MC) and perorally administered separately in five groups of rats from day 0 to day 14 in a volume of 1 ml per 100 g body weight.
On Day 14, the arthritic score of each paw was evaluated as described below. The total arthritic score for each animal was the sum of the score for all four limbs (Agents and Actions 27: 356-358, 1989). […]

[2] = system: rats with adjuvant-induced arthritis; experiment: Paw edema of adjuvant arthritis (hindpaw volume, hydroplethysmometer); type: in vivo, male, Sprague-Dawley rats; details: for % inhibition contralateral paw / % inhibition ipsilateral paw: paw edema on day 14, perorally day 0 to day 14, compound A and B 60 mg/kg bid, piroxicam 3 mg/kg qd, rofecoxib 1.5 mg/kg bid, n=8
Protocol: as §1, §2
Hindpaw volume was measured by an hydroplethysmometer (Ugo Basile, Comerio, Italy) on Day 0, immediately before adjuvant injection, and on Days 1, 4, 7, 11 and 14 after injection. Paw swelling (%) was calculated as follows (Agents and Actions 34: 63-65, 1991):
swelling (%)={Day X volume (ml)−Day 0 volume (ml)}/Day 0 volume (ml)×100.

CCc1nc2cc(C(F)(F)F)c(Cl)cc2n1-c1ccc(C[C@H](C)OC(=O)NS(=O)(=O)c2ccc(C)cc2)cc1 [Example 250, (1S)-2-{4-[6-chloro-2-ethyl-5-(trifluoromethyl)-1H-benzimidazol-1-yl]phenyl}-1-methylethyl (4-methylphenyl)sulfonylcarbamate]
melting point: 200.3 °C

CN1C(C(=O)Nc2ccccn2)=C(O)c2ccccc2S1(=O)=O [Piroxicam, piroxicam]
% inhibition (arthritic score) [1]: 26.7** % | % inhibition contralateral paw [2]: 96.2* % | % inhibition ipsilateral paw [2]: 50.8** %

CCc1nc2c(C)nc(C)cc2n1-c1ccc(CCOC(=O)NS(=O)(=O)c2ccc(C)cc2)cc1 [Example 227, 2-[4-(2-ethyl-4,6-dimethyl-1H-imidazo[4,5-c]pyridin-1-yl)phenyl]ethyl (4-methylphenyl)sulfonylcarbamate]
melting point: 158 °C

CCc1nc2cc(C(C)=O)ccc2n1-c1ccc(CCOC(=O)NS(=O)(=O)c2ccc(C)cc2)cc1 [Example 332, 2-[4-(5-acetyl-2-ethyl-1H-benzimidazol-1-yl)phenyl]ethyl (4-methylphenyl)sulfonylcarbamate]
melting point: 188 to 190 °C

CS(=O)(=O)c1ccc(C2=C(c3ccccc3)C(=O)OC2)cc1 [Rofecoxib, rofecoxib]
% inhibition (arthritic score) [1]: 18.5** % | edema formation in the ipsilateral paws (result in words) ([2]; during the entire experimental period (day 0 to day 14), versus disease group untreated with compound): weaker activity | % inhibition contralateral paw [2]: 25.6% | % inhibition ipsilateral paw [2]: 37.1* %

CCc1nc2c(C)nc(C)nc2n1-c1ccc(CCOC(=O)NS(=O)(=O)c2ccc(C)cc2)cc1 [Example 228, 2-[4-(8-ethyl-2,6-dimethyl-9H-purin-9-yl)phenyl]ethyl (4-methylphenyl)sulfonylcarbamate]
melting point: 162 °C

CCc1nc2cc(C(F)(F)F)c(Cl)cc2n1-c1ccc(CCN(C(=O)O)S(=O)(=O)c2ccc(C)cn2)cc1.Cl
melting point: 205.8 °C
